# Measurements reported in paper PMC7202735 (Journal of medicinal chemistry, 2018).
# Experiments:
# CB1 = settings: cited from earlier work
# endothelial HUVEC cells = experiment: Angiogenesis assay: endothelial tube formation on matrigel; type: cell-based, human; settings: 0.5 μM and 1 μM, 5 hours
# MG63 cells = experiment: Wound healing scratch assay, MG63; type: cell-based, human; settings: MG63 cell line, Figure 2d
# 143B cells = experiment: Wound healing scratch assay, 143B; type: cell-based, human; settings: 143B cell line, with rimonabant, Supplementary Figure S4
# 143B = experiment: Cell cycle analysis by propidium iodide staining, 143B; type: cell-based, human; settings: treated 24 hours
# [1] = target: T1, Fatty acid amide hydrolase (FAAH) (Sus scrofa, UniProt Q9TUI8); settings: cited from earlier work
# T1 sequence (Q9TUI8 1-579): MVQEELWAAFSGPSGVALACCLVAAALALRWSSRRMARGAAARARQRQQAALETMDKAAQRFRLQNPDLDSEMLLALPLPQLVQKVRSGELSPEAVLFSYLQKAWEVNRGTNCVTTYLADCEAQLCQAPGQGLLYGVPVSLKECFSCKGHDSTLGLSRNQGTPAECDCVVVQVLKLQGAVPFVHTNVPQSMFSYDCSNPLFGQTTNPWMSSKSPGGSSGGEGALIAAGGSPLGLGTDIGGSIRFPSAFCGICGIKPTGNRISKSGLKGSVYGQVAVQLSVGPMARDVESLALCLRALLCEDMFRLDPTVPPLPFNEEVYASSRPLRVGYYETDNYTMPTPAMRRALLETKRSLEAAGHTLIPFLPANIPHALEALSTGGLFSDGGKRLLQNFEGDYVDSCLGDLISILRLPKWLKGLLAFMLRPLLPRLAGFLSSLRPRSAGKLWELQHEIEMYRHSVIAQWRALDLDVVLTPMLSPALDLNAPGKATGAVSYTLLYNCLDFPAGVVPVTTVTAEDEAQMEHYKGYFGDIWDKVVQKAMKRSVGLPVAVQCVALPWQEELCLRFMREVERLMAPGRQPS
# HOS, 143B and MG63 cells = type: cell-based, human; settings: for induction of apoptosis as compared to no treatment control: all three cell lines, 12.5 μM; for apoptotic activity as compared to control: antagonist alone, supplementary tables 2–4
smiles,measurement,setting,value
"CCCCCC=CCC=CCC=CCC=CCCCC(=O)NC(C)CO (single isomer, unassigned) [R isomer]","CB1 binding, fold higher as compared to AEA",CB1,4 fold
"CCCCCC=CCC=CCC=CCC=CCCCC(=O)NC(C)CO (single isomer, unassigned) [S isomers]","CB1 binding, fold lower as compared to AEA",CB1,2 fold
"CC/C=C\C/C=C\C/C=C\CC1OC1C/C=C\C/C=C\CCC(=O)NC1CC1 (stereo not drawn) [10,11-EDP-CA, (4Z,7Z)-N-cyclopropyl-9-(3-((2Z,5Z,8Z)-undeca-2,5,8-trien-1-yl)oxiran-2-yl)nona-4,7-dienamide]",tube formation as compared to the vehicle control,endothelial HUVEC cells,Restriction of tube formation
same,restriction in wound healing as compared to the control,MG63 cells,"comparable to 10,11-EDP-EA"
"CC/C=C\C/C=C\C/C=C\CC1OC1C/C=C\C/C=C\CCC(=O)NCCO (stereo not drawn) [10,11-EDP-EA, (4Z,7Z)-N-(2-hydroxyethyl)-9-(3-((2Z,5Z,8Z)-undeca-2,5,8-trien-1-yl)oxiran-2-yl)nona-4,7-dienamide]",tube formation as compared to the vehicle control,endothelial HUVEC cells,Restriction of tube formation
same,reduction of cell migration in presence of CB1 receptor antagonist,143B cells,completely abolished
"CC/C=C\C/C=C\C/C=C\CC1OC1C/C=C\C/C=C\CCC(=O)NC(C)CO (stereo not drawn) [10,11-EDP-IA, (4Z,7Z)-N-(1-hydroxypropan-2-yl)-9-(3-((2Z,5Z,8Z)-undeca-2,5,8-trien-1-yl)oxiran-2-yl)nona-4,7-dienamide]",tube formation as compared to the vehicle control,endothelial HUVEC cells,Restriction of tube formation
same,restriction in wound healing as compared to the control,MG63 cells,slightly poorer than the control
"CC/C=C\C/C=C\C/C=C\CC1OC1C/C=C\C/C=C\CCC(=O)NCCCO (stereo not drawn) [10,11-EDP-NA, (4Z,7Z)-N-(3-hydroxypropyl)-9-(3-((2Z,5Z,8Z)-undeca-2,5,8-trien-1-yl)oxiran-2-yl)nona-4,7-dienamide]",tube formation as compared to the vehicle control,endothelial HUVEC cells,Restriction of tube formation
same,percentage of cells in S,143B,slight suppression
same,restriction in wound healing as compared to the control,MG63 cells,slightly poorer than the control
"CCC1OC1C/C=C\C/C=C\C/C=C\C/C=C\C/C=C\CCC(=O)NCCO (stereo not drawn) [19,20-EDP-EA]",rate of hydrolysis,[1],150 pmol min−1 mg protein−1
"CCCCC/C=C\C/C=C\C/C=C\C/C=C\CCCC(=O)O [AA, arachidonic acid]",induction of apoptosis as compared to no treatment control,"HOS, 143B and MG63 cells",no induction of apoptosis
"CCCCC/C=C\C/C=C\C/C=C\C/C=C\CCCC(=O)NCCO [AEA, arachidonoyl ethanolamide]",induction of apoptosis as compared to no treatment control,"HOS, 143B and MG63 cells",no induction of apoptosis
COc1ccc(C(=O)c2c(C)n(CCN3CCOCC3)c3cc(I)ccc23)cc1 [AM 630],apoptotic activity as compared to control,"HOS, 143B and MG63 cells",very limited apoptotic activity
"CC/C=C\C/C=C\C/C=C\C/C=C\C/C=C\C/C=C\CCC(=O)O [DHA, docosahexaenoic acid]",induction of apoptosis as compared to no treatment control,"HOS, 143B and MG63 cells",no induction of apoptosis
"CC/C=C\C/C=C\C/C=C\C/C=C\C/C=C\C/C=C\CCC(=O)NCCO [DHEA, docosahexaenoylethanolamide]",induction of apoptosis as compared to no treatment control,"HOS, 143B and MG63 cells",no induction of apoptosis
Cc1c(C(=O)NN2CCCCC2)nn(-c2ccc(Cl)cc2Cl)c1-c1ccc(Cl)cc1 [rimonabant],apoptotic activity as compared to control,"HOS, 143B and MG63 cells",very limited apoptotic activity
